Measured values from patent publication EP2926812A1, “USE OF ARTEMETHER IN PREPARATION OF DRUG FOR TREATING LEUKEMIA” (Kunming Pharmaceutical Corp., priority 2012, dated 2014).

Columns and labels:
[1] = mouse, in vivo
Description: (§1) Nude mice were subjected to a 3.0Gy whole-body irradiation, after subcutaneous inoculation of the K562 cells. One week after inoculation, nude mice with visible tumors were divided into the following 5 groups each consisting of 6 animals. The following dosages were administered for 3 continuous weeks, with 5 doses per week, a total of 15 doses.
(§2) Nude mice were subjected to a 3.0Gy whole-body irradiation, after subcutaneous inoculation of the K562 cells. One week after inoculation, nude mice with visible tumors were divided into the following 5 groups each consisting of 6 nude mice.
(§3) High dosage group: intraperitoneal injection of artemether at 100 ml/kg. The dosage was administered for 3 weeks, with 5 doses per week, a total of 15 doses.
(§4) Middle dosage group: intraperitoneal injection of artemether at 60 ml/kg. The dosage was administered for 3 weeks, with 7 doses per week, a total of 21 doses.
(§5) Low dosage group: intraperitoneal injection of artemether at 40 ml/kg. The dosage was administered for 3 weeks, with 7 doses per week, a total of 21 doses.

[2] = tested on: K562 nude mice transplanted tumor; assay: Inhibition of growth of K562 nude mice transplanted tumor (pre-trial, experiment 1, experiment 2); format: in vivo, Balb/c nude mice; conditions: for tumor sizes: n=6
From the text: 2.4 K562 cell: primary K562 cell is derived from bone marrow of a patient having leukemia, introduced by Blood Research Institute from abroad, stored and passaged in Pathologic Cell Bank; cultured in RPMI1640 medium (comprising 10% fetal bovine serum).
2.6 experimental animal: Balb/c nude mice, 4~5 weeks old, weight: 17~20 g, gender: half male and half female. Experimental Animal Institute of the Chinese Academy of Medical Sciences, certification number of experimental animals: SCXK (JING) 2005-0013.
3.1.1 Balb/c nude mice were subjected to 3.0Gy whole-body irradiation, after subcutaneous inoculation of primary K562 cells. About 4 weeks after inoculation, tumor masses in growing were removed and transplanted into […], and this process was repeated for 2~3 passages to establish high oncogenic K562 cell line.
as §1, with “3.1.2 Nude” for “Nude”, “to” for “to a”, “following 4” for “following 5”, “with 7” for “with 5”, “of 21” for “of 15”
Model control group: intraperitoneal injection of 20% aqueous solution of excipient at 0.2 ml/animal.
High dosage group: intraperitoneal injection of artemether at 150 ml/kg.
Middle dosage group: intraperitoneal injection of artemether at 100 ml/kg.
Low dosage group: intraperitoneal injection of artemether at 50 ml/kg.
as §1
Positive control group: intraperitoneal injection of cyclophosphamide at 10 ml/kg.
High dosage group: intraperitoneal injection of artemether at 100 ml/kg.
Middle dosage group: intraperitoneal injection of artemether at 60 ml/kg.
Low dosage group: intraperitoneal injection of artemether at 40 ml/kg.
as §2
Model control group: intraperitoneal injection of 20% solution of excipient at 0.2ml/animal. The dosage was administered for 3 weeks, with 7 doses per week, a total of 21 doses.
Positive control group: intraperitoneal injection of cyclophosphamide at 10 ml/kg. The dosage was administered for 3 weeks, with 7 doses per week, a total of 21 doses.
as §3, §4, §5

[3] = tested on: K562 nude mice transplanted tumor; assay: Apoptosis of tumor cells from tumor-bearing animals (pre-trial); format: in vivo, Balb/c nude mice; conditions: 21 doses
Description: as §1, with “3.1.2 Nude” for “Nude”, “to” for “to a”, “following 4” for “following 5”, “with 7” for “with 5”, “of 21” for “of 15”
The effect of the drug on the apoptosis of the tumor cell: from the result of pre-trial (table 3), it appears that the apoptosis ratio in control group is higher than that in the treated group. In fact, this is because the tutor of control group grows more rapidly, has a larger volume, and thus a more significant necrosis. […] However, cells which are not inhibited by the drug form a tumor mass that are not different much from the tumor mass in control group. Therefore, in a mechanism study, tumor cells in vivo should not be used, and an in vitro test is preferred.

Question: Which results are given for `CO[C@H]1O[C@@H]2O[C@@]3(C)CC[C@H]4[C@H](C)CC[C@@H]([C@H]1C)[C@@]24OO3` [artemether]?
Answer: toxicity [1]: without toxicity; tumor sizes ([2]; experiment 1, High dosage group: artemether 100 ml/kg intraperitoneal, 15 doses in 3 weeks, 1 week after inoculation): 55.6±11.4 mm3; tumor sizes ([2]; experiment 1, High dosage group: artemether 100 ml/kg intraperitoneal, 15 doses in 3 weeks, 2 weeks after inoculation): 72.9±70.8 mm3; tumor sizes ([2]; experiment 1, High dosage group: artemether 100 ml/kg intraperitoneal, 15 doses in 3 weeks, 3 weeks after inoculation): 307.9±223.2 mm3; tumor sizes ([2]; experiment 1, High dosage group: artemether 100 ml/kg intraperitoneal, 15 doses in 3 weeks, 4 weeks after inoculation): 489.2±199.9 mm3; tumor mass ([2]; experiment 1, High dosage group: artemether 100 ml/kg intraperitoneal, 15 doses, 4 weeks after inoculation): 340.0 ± 237.6 mg; tumor sizes ([2]; experiment 1, Low dosage group: artemether 40 ml/kg intraperitoneal, 15 doses in 3 weeks, 1 week after inoculation): 42.0±9.0 mm3; tumor sizes ([2]; experiment 1, Low dosage group: artemether 40 ml/kg intraperitoneal, 15 doses in 3 weeks, 2 weeks after inoculation): 148.4±75.6 mm3; tumor sizes ([2]; experiment 1, Low dosage group: artemether 40 ml/kg intraperitoneal, 15 doses in 3 weeks, 3 weeks after inoculation): 432.6±332.5 mm3; tumor sizes ([2]; experiment 1, Low dosage group: artemether 40 ml/kg intraperitoneal, 15 doses in 3 weeks, 4 weeks after inoculation): 1127.7±142.8 mm3; tumor mass ([2]; experiment 1, Low dosage group: artemether 40 ml/kg intraperitoneal, 15 doses, 4 weeks after inoculation): 1135.0 ± 457.2 mg; tumor sizes ([2]; experiment 1, Middle dosage group: artemether 60 ml/kg intraperitoneal, 15 doses in 3 weeks, 1 week after inoculation): 51.3±4.5 mm3; tumor sizes ([2]; experiment 1, Middle dosage group: artemether 60 ml/kg intraperitoneal, 15 doses in 3 weeks, 2 weeks after inoculation): 127.5±22.3 mm3; tumor sizes ([2]; experiment 1, Middle dosage group: artemether 60 ml/kg intraperitoneal, 15 doses in 3 weeks, 3 weeks after inoculation): 376.7±135.8 mm3; tumor sizes ([2]; experiment 1, Middle dosage group: artemether 60 ml/kg intraperitoneal, 15 doses in 3 weeks, 4 weeks after inoculation): 1035.6±248.5 mm3; tumor mass ([2]; experiment 1, Middle dosage group: artemether 60 ml/kg intraperitoneal, 15 doses, 4 weeks after inoculation): 736.7 ± 247.6 mg; tumor sizes ([2]; experiment 2, High dosage group: artemether 100 ml/kg intraperitoneal, 15 doses in 3 weeks, 1 week after inoculation): 33.9±14.4 mm3; tumor sizes ([2]; experiment 2, High dosage group: artemether 100 ml/kg intraperitoneal, 15 doses in 3 weeks, 2 weeks after inoculation): 75.5±27.2 mm3; tumor sizes ([2]; experiment 2, High dosage group: artemether 100 ml/kg intraperitoneal, 15 doses in 3 weeks, 3 weeks after inoculation): 137.1±101.6 mm3; tumor sizes ([2]; experiment 2, High dosage group: artemether 100 ml/kg intraperitoneal, 15 doses in 3 weeks, 4 weeks after inoculation): 291.7±191.5 mm3; tumor mass ([2]; experiment 2, High dosage group: artemether 100 ml/kg intraperitoneal, 15 doses, 4 weeks after inoculation): 230 ± 1153.4 mg; tumor sizes ([2]; experiment 2, Low dosage group: artemether 40 ml/kg intraperitoneal, 21 doses in 3 weeks, 1 week after inoculation): 26.7±5.9 mm3; tumor sizes ([2]; experiment 2, Low dosage group: artemether 40 ml/kg intraperitoneal, 21 doses in 3 weeks, 2 weeks after inoculation): 203.7±127.3 mm3; tumor sizes ([2]; experiment 2, Low dosage group: artemether 40 ml/kg intraperitoneal, 21 doses in 3 weeks, 3 weeks after inoculation): 297.4±86.6 mm3; tumor sizes ([2]; experiment 2, Low dosage group: artemether 40 ml/kg intraperitoneal, 21 doses in 3 weeks, 4 weeks after inoculation): 729.2±272.8 mm3; tumor mass ([2]; experiment 2, Low dosage group: artemether 40 ml/kg intraperitoneal, 21 doses, 4 weeks after inoculation): 645 ± 314.7 mg; tumor sizes ([2]; experiment 2, Middle dosage group: artemether 60 ml/kg intraperitoneal, 21 doses in 3 weeks, 1 week after inoculation): 22.7±7.4 mm3; tumor sizes ([2]; experiment 2, Middle dosage group: artemether 60 ml/kg intraperitoneal, 21 doses in 3 weeks, 2 weeks after inoculation): 118.4±129.0 mm3; tumor sizes ([2]; experiment 2, Middle dosage group: artemether 60 ml/kg intraperitoneal, 21 doses in 3 weeks, 3 weeks after inoculation): 201.2±98.9 mm3; tumor sizes ([2]; experiment 2, Middle dosage group: artemether 60 ml/kg intraperitoneal, 21 doses in 3 weeks, 4 weeks after inoculation): 746.6±393.7 mm3; tumor mass ([2]; experiment 2, Middle dosage group: artemether 60 ml/kg intraperitoneal, 21 doses, 4 weeks after inoculation): 630 ± 418.9 mg; inhibition ratio ([2]; of tumor mass, experiment 1, Low dosage group: artemether 40 ml/kg intraperitoneal, 15 doses, 4 weeks after inoculation, listed as artemether lyophilized powder for injection): no significant inhibition; inhibition ratio ([2]; of tumor mass, experiment 1, Middle dosage group: artemether 60 ml/kg intraperitoneal, 15 doses, 4 weeks after inoculation, listed as artemether lyophilized powder for injection): 31%; inhibition ratio ([2]; of tumor mass, experiment 2, Low dosage group: artemether 40 ml/kg intraperitoneal, 21 doses, 4 weeks after inoculation, listed as artemether lyophilized powder for injection): 55%; inhibition ratio ([2]; of tumor mass, experiment 2, Middle dosage group: artemether 60 ml/kg intraperitoneal, 21 doses, 4 weeks after inoculation, listed as artemether lyophilized powder for injection): 56%; inhibition ratio ([2]; of tumor mass, pre-trial, Low dosage group: artemether 50 ml/kg intraperitoneal, 21 doses, 4 weeks after administration): 41.1%; inhibition ratio ([2]; of tumor mass, pre-trial, Middle dosage group: artemether 100 ml/kg intraperitoneal, 21 doses, 4 weeks after administration): 64.9%; inhibition ratio ([2]; of tumor volume, pre-trial, Low dosage group: artemether 50 ml/kg intraperitoneal, 21 doses, 3 weeks after administration): 43.6%; inhibition ratio ([2]; of tumor volume, pre-trial, Low dosage group: artemether 50 ml/kg intraperitoneal, 21 doses, 4 weeks after administration): 44.6%; inhibition ratio ([2]; of tumor volume, pre-trial, Middle dosage group: artemether 100 ml/kg intraperitoneal, 21 doses, 3 weeks after administration): 70.3%; inhibition ratio ([2]; of tumor volume, pre-trial, Middle dosage group: artemether 100 ml/kg intraperitoneal, 21 doses, 4 weeks after administration): 69.1%; tumor volume ([2]; pre-trial, High dosage group: artemether 150 ml/kg intraperitoneal, 21 doses in 3 weeks, 1 week after administration): 55.3 mm3; tumor volume ([2]; pre-trial, High dosage group: artemether 150 ml/kg intraperitoneal, 21 doses in 3 weeks, 2 weeks after administration): 136.8 mm3; tumor volume ([2]; pre-trial, High dosage group: artemether 150 ml/kg intraperitoneal, 21 doses in 3 weeks, 3 weeks after administration): 454.1 mm3; tumor volume ([2]; pre-trial, High dosage group: artemether 150 ml/kg intraperitoneal, 21 doses in 3 weeks, 4 weeks after administration): 663.1 mm3; tumor mass ([2]; pre-trial, High dosage group: artemether 150 ml/kg intraperitoneal, 21 doses, 4 weeks after administration): 590 mg; tumor volume ([2]; pre-trial, Low dosage group: artemether 50 ml/kg intraperitoneal, 21 doses in 3 weeks, 1 week after administration): 174.9±74.7 mm3; tumor volume ([2]; pre-trial, Low dosage group: artemether 50 ml/kg intraperitoneal, 21 doses in 3 weeks, 2 weeks after administration): 535.5±253.42 mm3; tumor volume ([2]; pre-trial, Low dosage group: artemether 50 ml/kg intraperitoneal, 21 doses in 3 weeks, 3 weeks after administration): 997.1±327.71 mm3; tumor volume ([2]; pre-trial, Low dosage group: artemether 50 ml/kg intraperitoneal, 21 doses in 3 weeks, 4 weeks after administration): 1672.0 ± 331.0 mm3; tumor mass ([2]; pre-trial, Low dosage group: artemether 50 ml/kg intraperitoneal, 21 doses, 4 weeks after administration): 1436 ± 281.3 mg; tumor volume ([2]; pre-trial, Middle dosage group: artemether 100 ml/kg intraperitoneal, 21 doses in 3 weeks, 1 week after administration): 93.6±43.6 mm3; tumor volume ([2]; pre-trial, Middle dosage group: artemether 100 ml/kg intraperitoneal, 21 doses in 3 weeks, 2 weeks after administration): 219.9 ± 110.83 mm3; tumor volume ([2]; pre-trial, Middle dosage group: artemether 100 ml/kg intraperitoneal, 21 doses in 3 weeks, 3 weeks after administration): 524.6±265.57 mm3; tumor volume ([2]; pre-trial, Middle dosage group: artemether 100 ml/kg intraperitoneal, 21 doses in 3 weeks, 4 weeks after administration): 931.8±307.9 mm3; tumor mass ([2]; pre-trial, Middle dosage group: artemether 100 ml/kg intraperitoneal, 21 doses, 4 weeks after administration): 857 ± 574.4 mg; apoptosis ratio ([3]; High dosage group: artemether 150 intraperitoneal): 2.63%; apoptosis ratio ([3]; Low dosage group: artemether 50 intraperitoneal): 1.37±0.47%; apoptosis ratio ([3]; Middle dosage group: artemether 100 intraperitoneal): 2.04 ±1.58%
